Source: the NIST ThermoML archive (doi:10.1021/je700145e)

Conditions: Liquid

CCCCCCCCCCO [decan-1-ol]
Conditions	mass density [kg/m3]
313.12 K, 1025 kPa	816.79
313.12 K, 2002 kPa	817.46
313.12 K, 2995 kPa	817.98
313.12 K, 4013 kPa	818.58
313.12 K, 5004 kPa	819.21
313.12 K, 5994 kPa	819.86
313.12 K, 7003 kPa	820.47
313.12 K, 7997 kPa	821.19
313.12 K, 9000 kPa	821.73
313.12 K, 9994 kPa	822.38
313.12 K, 10995 kPa	823.02
313.12 K, 11995 kPa	823.67
313.12 K, 12997 kPa	824.2
313.12 K, 13996 kPa	824.82
313.12 K, 14998 kPa	825.42
313.12 K, 15990 kPa	826.01
313.12 K, 16995 kPa	826.61
313.12 K, 17986 kPa	827.14
313.12 K, 18992 kPa	827.76
313.12 K, 19993 kPa	828.31
313.12 K, 20999 kPa	828.88
313.12 K, 21509 kPa	829.19
323.09 K, 1002 kPa	809.87
323.09 K, 2011 kPa	810.59
323.09 K, 3019 kPa	811.21
323.09 K, 4014 kPa	811.83
323.09 K, 5006 kPa	812.47
323.09 K, 6012 kPa	813.18
323.09 K, 7002 kPa	813.8
323.09 K, 8003 kPa	814.42
323.09 K, 9008 kPa	815.1
323.09 K, 10006 kPa	815.7
323.09 K, 11000 kPa	816.38
323.09 K, 12002 kPa	816.97
323.09 K, 13002 kPa	817.64
323.09 K, 14000 kPa	818.21
323.09 K, 15017 kPa	818.84
323.09 K, 16003 kPa	819.4
323.09 K, 17015 kPa	820.02
323.09 K, 18006 kPa	820.61
323.09 K, 19007 kPa	821.24
323.09 K, 20007 kPa	821.84
323.09 K, 21002 kPa	822.41
323.09 K, 22014 kPa	823.01
333.04 K, 1046 kPa	802.82
333.04 K, 2018 kPa	803.5
333.04 K, 3008 kPa	804.21
333.04 K, 4012 kPa	804.88
333.04 K, 5059 kPa	805.62
333.04 K, 6016 kPa	806.29
333.04 K, 7022 kPa	807
333.04 K, 8014 kPa	807.64
333.04 K, 9015 kPa	808.34
333.04 K, 10015 kPa	808.97
333.04 K, 11019 kPa	809.64
333.04 K, 12007 kPa	810.31
333.04 K, 13019 kPa	810.96
333.04 K, 14019 kPa	811.6
333.04 K, 15014 kPa	812.24
333.04 K, 16021 kPa	812.88
333.04 K, 17026 kPa	813.5
333.04 K, 18023 kPa	814.11
333.04 K, 19018 kPa	814.72
333.04 K, 20025 kPa	815.35
333.04 K, 21020 kPa	815.94
333.04 K, 22032 kPa	816.58
342.98 K, 1058 kPa	795.63
342.98 K, 2045 kPa	796.4
342.98 K, 3022 kPa	797.12
342.98 K, 4035 kPa	797.9
342.98 K, 5028 kPa	798.63
342.98 K, 6030 kPa	799.37
342.98 K, 7023 kPa	800.07
342.98 K, 8028 kPa	800.78
342.98 K, 9062 kPa	801.51
342.98 K, 10035 kPa	802.22
342.98 K, 11029 kPa	802.92
342.98 K, 12064 kPa	803.64
342.98 K, 13023 kPa	804.31
342.98 K, 14042 kPa	805
342.98 K, 15022 kPa	805.66
342.98 K, 16022 kPa	806.36
342.98 K, 17021 kPa	807
342.98 K, 18034 kPa	807.7
342.98 K, 19025 kPa	808.35
342.98 K, 20038 kPa	808.98
342.98 K, 21018 kPa	809.62
342.98 K, 22035 kPa	810.28
352.86 K, 1069 kPa	788.44
352.86 K, 2043 kPa	789.24
352.86 K, 3040 kPa	790.04
352.86 K, 4048 kPa	790.78
352.86 K, 5038 kPa	791.59
352.86 K, 6043 kPa	792.34
352.86 K, 7038 kPa	793.09
352.86 K, 8039 kPa	793.84
352.86 K, 9040 kPa	794.57
352.86 K, 10038 kPa	795.32
352.86 K, 11032 kPa	796.04
352.86 K, 12032 kPa	796.74
352.86 K, 13040 kPa	797.47
352.86 K, 14046 kPa	798.18
352.86 K, 15043 kPa	798.89
352.86 K, 16037 kPa	799.59
352.86 K, 17040 kPa	800.26
352.86 K, 18046 kPa	800.95
352.86 K, 19040 kPa	801.63
352.86 K, 20064 kPa	802.32
352.86 K, 21048 kPa	802.96
352.86 K, 22049 kPa	803.62
362.89 K, 1077 kPa	781.02
362.89 K, 2027 kPa	781.83
362.89 K, 3089 kPa	782.69
362.89 K, 4047 kPa	783.49
362.89 K, 5061 kPa	784.29
362.89 K, 6060 kPa	785.12
362.89 K, 7041 kPa	785.91
362.89 K, 8049 kPa	786.7
362.89 K, 9049 kPa	787.47
362.89 K, 10052 kPa	788.25
362.89 K, 11045 kPa	788.99
362.89 K, 12044 kPa	789.75
362.89 K, 13054 kPa	790.54
362.89 K, 14053 kPa	791.25
362.89 K, 15052 kPa	792
362.89 K, 16056 kPa	792.77
362.89 K, 17063 kPa	793.47
362.89 K, 18062 kPa	794.2
362.89 K, 19062 kPa	794.91
362.89 K, 20068 kPa	795.64
362.89 K, 21072 kPa	796.35
362.89 K, 22063 kPa	797.03

CCCCCCCCO [octan-1-ol]
Conditions	mass density [kg/m3]
313.14 K, 1004 kPa	811.26
313.14 K, 2019 kPa	811.95
313.14 K, 3000 kPa	812.59
313.14 K, 4020 kPa	813.22
313.14 K, 4995 kPa	813.89
313.14 K, 6000 kPa	814.53
313.14 K, 7007 kPa	815.21
313.14 K, 8012 kPa	815.83
313.14 K, 8994 kPa	816.51
313.14 K, 10014 kPa	817.19
313.14 K, 11007 kPa	817.79
313.14 K, 12000 kPa	818.42
313.14 K, 12997 kPa	819.05
313.14 K, 14001 kPa	819.67
313.14 K, 14997 kPa	820.27
313.14 K, 16002 kPa	820.89
313.14 K, 17001 kPa	821.48
313.14 K, 17997 kPa	822.1
313.14 K, 19004 kPa	822.69
313.14 K, 20007 kPa	823.28
313.14 K, 21004 kPa	823.86
323.09 K, 1007 kPa	804.26
323.09 K, 2016 kPa	804.97
323.09 K, 3019 kPa	805.7
323.09 K, 4025 kPa	806.4
323.09 K, 5012 kPa	807.07
323.09 K, 6093 kPa	807.82
323.09 K, 7143 kPa	808.56
323.09 K, 8009 kPa	809.12
323.09 K, 8989 kPa	809.77
323.09 K, 10014 kPa	810.47
323.09 K, 11031 kPa	811.14
323.09 K, 12010 kPa	811.82
323.09 K, 13005 kPa	812.44
323.09 K, 14003 kPa	813.11
323.09 K, 15012 kPa	813.76
323.09 K, 16009 kPa	814.4
323.09 K, 17005 kPa	815.04
323.09 K, 18013 kPa	815.66
323.09 K, 19003 kPa	816.26
323.09 K, 20025 kPa	816.9
323.09 K, 21081 kPa	817.56
323.09 K, 22009 kPa	818.09
333.05 K, 1038 kPa	797.31
333.05 K, 2029 kPa	798.03
333.05 K, 2999 kPa	798.76
333.05 K, 4033 kPa	799.51
333.05 K, 5020 kPa	800.25
333.05 K, 6014 kPa	800.97
333.05 K, 7029 kPa	801.69
333.05 K, 8011 kPa	802.44
333.05 K, 9005 kPa	803.11
333.05 K, 10022 kPa	803.83
333.05 K, 11011 kPa	804.55
333.05 K, 12021 kPa	805.23
333.05 K, 13022 kPa	805.92
333.05 K, 14031 kPa	806.61
333.05 K, 15010 kPa	807.28
333.05 K, 16023 kPa	807.92
333.05 K, 17012 kPa	808.59
333.05 K, 18035 kPa	809.23
333.05 K, 19009 kPa	809.87
333.05 K, 20002 kPa	810.51
333.05 K, 21011 kPa	811.15
333.05 K, 22019 kPa	811.82
343.03 K, 1049 kPa	790.6
343.03 K, 2003 kPa	791.16
343.03 K, 2981 kPa	791.93
343.03 K, 4017 kPa	792.68
343.03 K, 5000 kPa	793.37
343.03 K, 6005 kPa	794.05
343.03 K, 7018 kPa	794.88
343.03 K, 8104 kPa	795.68
343.03 K, 9014 kPa	796.44
343.03 K, 10022 kPa	797.1
343.03 K, 11028 kPa	797.87
343.03 K, 11997 kPa	798.58
343.03 K, 13030 kPa	799.3
343.03 K, 14005 kPa	800
343.03 K, 15002 kPa	800.66
343.03 K, 16032 kPa	801.38
343.03 K, 17016 kPa	801.99
343.03 K, 18012 kPa	802.68
343.03 K, 19005 kPa	803.29
343.03 K, 20018 kPa	803.98
343.03 K, 21014 kPa	804.61
343.03 K, 22004 kPa	805.23
352.89 K, 1023 kPa	782.71
352.89 K, 2011 kPa	783.55
352.89 K, 3032 kPa	784.42
352.89 K, 4022 kPa	785.42
352.89 K, 5005 kPa	786.18
352.89 K, 6026 kPa	787.13
352.89 K, 7003 kPa	787.9
352.89 K, 8016 kPa	788.71
352.89 K, 9007 kPa	789.47
352.89 K, 10003 kPa	790.22
352.89 K, 11022 kPa	791
352.89 K, 12170 kPa	791.78
352.89 K, 13015 kPa	792.51
352.89 K, 14018 kPa	793.24
352.89 K, 15009 kPa	794
352.89 K, 16023 kPa	794.74
352.89 K, 17010 kPa	795.48
352.89 K, 18002 kPa	796.16
352.89 K, 19029 kPa	796.9
352.89 K, 20046 kPa	797.63
352.89 K, 21023 kPa	798.3
362.77 K, 1051 kPa	775.67
362.77 K, 2025 kPa	776.41
362.77 K, 3016 kPa	777.19
362.77 K, 4009 kPa	778.05
362.77 K, 4974 kPa	778.77
362.77 K, 6005 kPa	779.51
362.77 K, 7006 kPa	780.3
362.77 K, 8011 kPa	780.95
362.77 K, 9008 kPa	781.79
362.77 K, 10034 kPa	782.62
362.77 K, 11013 kPa	783.32
362.77 K, 11987 kPa	784.03
362.77 K, 13015 kPa	784.77
362.77 K, 14006 kPa	785.51
362.77 K, 14997 kPa	786.3
362.77 K, 16001 kPa	787.03
362.77 K, 17013 kPa	787.79
362.77 K, 17997 kPa	788.55
362.77 K, 19000 kPa	789.33
362.77 K, 20023 kPa	790.04
362.77 K, 21004 kPa	790.83
